This note sets out measurements from publication PMC3279297 (Bioorganic & medicinal chemistry, 2011).

Holding throughout (assay type): biochemical
The target in assay [1] is DENV2 NS2B-NS3 protease (Dengue virus type 2, UniProt P14340). The assay can be described thus: In vitro DENV2 NS2B-NS3pro inhibition assay. The following applies: compound 25 μM, protease 25 nM, absence of detergent (Figure 2).
Assay [2] has as its target WNV NS2B-NS3pro (West Nile virus, UniProt Q9Q6P4). The assay can be described thus: In vitro WNV NS2B-NS3pro inhibition assay. The note with it: compound 25 μM, protease 28 nM, 0.1% CHAPS (Figure 3).
The target of assay [3] is DENV2 NS2B-NS3pro (Dengue virus type 2, UniProt P14340). The assay can be described thus: Steady-state kinetics of 7n against DENV2 NS2B-NS3pro. The note with it: 0.025 μM protease.
DENV2 NS2B-NS3pro, sequence (P14340 1476-1653): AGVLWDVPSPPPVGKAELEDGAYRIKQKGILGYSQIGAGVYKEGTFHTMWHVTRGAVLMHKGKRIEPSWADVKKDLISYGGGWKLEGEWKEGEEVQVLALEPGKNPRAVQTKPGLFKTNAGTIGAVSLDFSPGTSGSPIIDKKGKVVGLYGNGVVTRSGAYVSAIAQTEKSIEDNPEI
DENV2 NS2B-NS3pro, sequence (P14340 1398-1437): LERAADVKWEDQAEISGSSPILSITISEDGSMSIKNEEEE

DENV2 NS2B-NS3 protease, sequence (P14340 1476-1653): as the sequence (P14340 1476-1653) above
DENV2 NS2B-NS3 protease, sequence (P14340 1398-1437): as the sequence (P14340 1398-1437) above
WNV NS2B-NS3pro, sequence (Q9Q6P4 1506-1683): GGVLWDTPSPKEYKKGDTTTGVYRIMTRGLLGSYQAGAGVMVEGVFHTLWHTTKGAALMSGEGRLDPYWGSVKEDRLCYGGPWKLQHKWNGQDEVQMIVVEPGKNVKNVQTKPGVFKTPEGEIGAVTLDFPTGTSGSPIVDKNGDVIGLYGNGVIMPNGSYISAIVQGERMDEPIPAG
WNV NS2B-NS3pro, sequence (Q9Q6P4 1428-1467): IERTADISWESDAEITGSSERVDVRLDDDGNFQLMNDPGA

Consider `O=C(Cn1sc2ccccc2c1=O)NCc1cn(CC(=O)Nc2ccc(Oc3ccccc3)cc2)nn1` [Compound 4l, N-((1-(2-Oxo-2-(4-phenoxyphenylamino)ethyl)-1H-1,2,3-triazol-4-yl)methyl)-2-(3-oxobenzo[d]isothiazol-2(3H)-yl)acetamide], for which the “inhibitory activity toward DENV NS2B-NS3pro (in words)” value in assay [1] was “noteworthy inhibitory activity”. In assay [2], the “inhibitory activity toward WNV NS2B-NS3pro (in words)” value was “weak inhibitory activity”.

Regarding `O=C(Cn1sc2ccccc2c1=O)Nc1cccc(OCc2cn(CC(=O)Nc3ccccc3Oc3ccccc3)nn2)c1` [Compound 7n, N-(3-((1-(2-Oxo-2-(2-phenoxyphenylamino)ethyl)-1H-1,2,3-triazol-4-yl)methoxy)phenyl)-2-(3-oxobenzo[d]isothiazol-2(3H)-yl)acetamide], the Vmax (as a rule, the top rate of the reaction or transport when substrate is in excess) was determined as 0.1006 ± 0.0029 µM/min in assay [3] (inhibitor [7n] 1 μM), 0.0978 ± 0.0020 µM/min in assay [3] (inhibitor [7n] 2 μM) and 0.0994 ± 0.0010 µM/min in assay [3] (inhibitor [7n] 5 μM).

As to “Methyl 4-((4-((3-(2-(3-oxobenzo[d]isothiazol-2(3H)-yl)acetamido)phenoxy)methyl)-1H-1,2,3-triazol-1-yl)methyl)benzoate [Compound 7e]”, the “inhibitory activity toward DENV NS2B-NS3pro (in words)” value in assay [1] was “noteworthy inhibitory activity”.
